Data published in patent publication US12186325B2, “Treatment and prevention of premature ejaculation (PE)” (SEROJAC PME Handels GmbH, priority 2018, dated 2025).
Read-outs that look alike come from different tables or passages of the source.

Assays:
[1] = cited from earlier work
[2] = test system: premature ejaculation (PE); assay: Case reports: intravaginal ejaculation latency time (IELT) in PE patients; assay type: in vivo, human
[3] = Case reports: tolerability and side effects in PE patients; assay type: in vivo, human
[4] = test system: premature ejaculation (PE); details: cited from earlier work
[5] = cited from earlier work; for peak plasma concentration: healthy volunteers
erectile dysfunction = assay: Case reports: erection / ability to achieve intercourse; assay type: in vivo, human; details: Case Report 6; 12 mg yohimbine daily alone, in two doses
Text: A patient complained about erectile dysfunction and PE.
A patient complained about primary PE and about psychogenic erectile dysfunction.

male rats = male rats (Shekar et al. 2017); cited from earlier work
aged male rats = details: cited from earlier work
seminal vesicle = details: electrical nerve stimulation (Hsieh et al. 1999); cited from earlier work
[6] = metabolite after oral clomipramine

In the case of `COC(=O)[C@@H]1[C@H]2C[C@H]3c4[nH]c5cc(O)ccc5c4CCN3C[C@@H]2CC[C@@H]1O` [11-hydroxy-yohimbine], the “elimination half-life of active metabolite” value ([1]; single-dose yohimbine studies) is listed as 6 h.

In the case of `CN(C)CCCN1c2ccccc2CCc2ccc(Cl)cc21` [clomipramine, 3-(3-chloro-10,11-dihydro-5H-dibenzo[b,f]azepin-5-yl)-N,N-dimethylpropan-1-amine], the IELT after treatment ([2]; Case Report 5, 30 mg clomipramine alone 6 hours before sexual intercourse, before: 1 minute) is given as 6 min, the side effects reported ([3]; Case Report 5, 30 mg clomipramine alone 6 hours before sexual intercourse) is given as “dizziness, dyspepsia and constipation” and the “time to climax in premature ejaculators” value ([4]; 50 mg clomipramine) is given as “more than 8 minutes”. The latency to ejaculation ([4]; 25 milligrams clomipramine 12 to 24 hours before sexual activity, from about 1.5 to 2 minutes) was “about 8 minutes”, the peak plasma concentration ([5]; single oral dose 50 mg) was 28.8 ± 11.2 ng/mL and the peak plasma concentration ([5]; single oral dose 100 mg) was 70 to 140 ng/mL.

In the case of `CNCCCN1c2ccccc2CCc2ccc(Cl)cc21` [desmethylclomipramine], the “peak plasma concentration of metabolite” value ([5]; after single oral dose of 50 mg clomipramine) is given as 5.0 ± 1.4 ng/mL, the half-life [5, 6] is given as 36 h and the “half-life, upper limit in brackets” value [5, 6] is given as “up to 9 hours”.

In the case of `Fc1ccc([C@@H]2CCNC[C@H]2COc2ccc3c(c2)OCO3)cc1` [paroxetine], the “outcome of earlier PE treatment” value ([2]; Case Report 1, 20 to 40 mg daily for 6 months) is reported as “unsuccessfully”.

In the case of `CN[C@H]1CC[C@@H](c2ccc(Cl)c(Cl)c2)c2ccccc21` [sertraline], the “outcome of earlier PE treatment” value ([2]; Case Report 2, 50-100 mg for 16 weeks) is reported as “unsuccessfully”.

For `COC(=O)[C@@H]1[C@H]2C[C@H]3c4[nH]c5ccccc5c4CCN3C[C@@H]2CC[C@@H]1O` [yohimbine, 17α-hydroxy-yohimban-16α-carboxylic acid methyl ester], the time of intercourse ([2]; Case Report 6, 12 mg yohimbine daily alone) was “no amelioration”, the side effects reported ([3]; Case Report 6, 12 mg yohimbine daily alone, from the second day of treatment) was “diarrhoea” and the erections (erectile dysfunction) was “improved erections”. The elimination half-life ([1]; single-dose studies, oral or intravenous) was less than 1 h, the “antagonism of clomipramine-induced sexual dysfunction” value (male rats) was “failed to antagonize” and the “effect on erectile dysfunction” value (aged male rats) was “improves erectile dysfunction”. For the same compound, the “effect on seminal vesicle contractile response” value (seminal vesicle) was “can suppress”.
